Measured values reported in PMC11645656, “MRGPRX4 mediates phospho-drug associated pruritus in a humanized mouse model” (Science translational medicine, 2024).
Values joined by “and” are separate entries in the source; they are usually repeats but may differ in a detail not shown here. Identical values can stand only once.

Tested on: MRGPRX4-expressing HEK293 cells (Gαq signaling pathway)
Experiment: Pharmacological blocker experiments: phospho-drug evoked calcium response in MRGPRX4-expressing HEK293 cells after inhibitor preincubation; also: test concentration or dose not given here

O=C1NC(c2ccccc2)(c2ccccc2)C(=O)N1COP(=O)(O)O [Fosphenytoin]
calcium response trace, fig. S2B (Time 0.8024 s, + Vehicle): 1
calcium response trace, fig. S2B (Time 0.8024 s, + YM254890): 1
calcium response trace, fig. S2B (Time 3.296 s, + YM254890): 1.0086
calcium response trace, fig. S2B (Time 5.8096 s, + YM254890): 1.014
calcium response trace, fig. S2B (Time 8.3136 s, + YM254890): 1.012
calcium response trace, fig. S2B (Time 10.8264 s, + YM254890): 1.017
calcium response trace, fig. S2B (Time 13.3408 s, + YM254890): 1.0091
calcium response trace, fig. S2B (Time 15.8536 s, + YM254890): 1.017
calcium response trace, fig. S2B (Time 18.3672 s, + YM254890): 1.0038
calcium response trace, fig. S2B (Time 20.8808 s, + YM254890): 1.022 and 1.026
calcium response trace, fig. S2B (Time 23.3848 s, + YM254890): 1.023 and 1.0316
calcium response trace, fig. S2B (Time 25.8984 s, + YM254890): 1.028 and 1.035
calcium response trace, fig. S2B (Time 28.392 s, + YM254890): 1.036 and 1.04
calcium response trace, fig. S2B (Time 30.8952 s, + YM254890): 1.032 and 1.039
calcium response trace, fig. S2B (Time 33.3896 s, + YM254890): 1.039 and 1.042
calcium response trace, fig. S2B (Time 35.8728 s, + YM254890): 1.035 and 1.045
calcium response trace, fig. S2B (Time 38.3656 s, + YM254890): 1.038 and 1.049
calcium response trace, fig. S2B (Time 40.86 s, + YM254890): 1.038 and 1.045
calcium response trace, fig. S2B (Time 43.3632 s, + YM254890): 1.041 and 1.036
calcium response trace, fig. S2B (Time 45.8664 s, + YM254890): 1.037 and 1.041
calcium response trace, fig. S2B (Time 48.38 s, + YM254890): 1.051 and 1.044
calcium response trace, fig. S2B (Time 50.8936 s, + YM254890): 1.041 and 1.044
calcium response trace, fig. S2B (Time 53.4072 s, + YM254890): 1.038 and 1.0407
calcium response trace, fig. S2B (Time 55.9112 s, + YM254890): 1.034 and 1.044
calcium response trace, fig. S2B (Time 58.4248 s, + YM254890): 1.04 and 1.039
calcium response trace, fig. S2B (Time 60.9288 s, + YM254890): 1.042 and 1.044
calcium response trace, fig. S2B (Time 63.444 s, + YM254890): 1.04 and 1.035
calcium response trace, fig. S2B (Time 65.9256 s, + YM254890): 1.037
calcium response trace, fig. S2B (Time 68.4192 s, + YM254890): 1.036
calcium response trace, fig. S2B (Time 70.9024 s, + YM254890): 1.036
calcium response trace, fig. S2B (Time 73.3864 s, + YM254890): 1.029
calcium response trace, fig. S2B (Time 75.8896 s, + YM254890): 1.034
calcium response trace, fig. S2B (Time 78.3936 s, + YM254890): 1.032
calcium response trace, fig. S2B (Time 80.9064 s, + YM254890): 1.03
calcium response trace, fig. S2B (Time 83.4104 s, + YM254890): 1.032
calcium response trace, fig. S2B (Time 85.9136 s, + YM254890): 1.031
calcium response trace, fig. S2B (Time 88.4176 s, + YM254890): 1.027
calcium response trace, fig. S2B (Time 90.9336 s, + YM254890): 1.025
calcium response trace, fig. S2B (Time 93.4144 s, + YM254890): 1.031
calcium response trace, fig. S2B (Time 95.908 s, + YM254890): 1.026
calcium response trace, fig. S2B (Time 98.4016 s, + YM254890): 1.025
calcium response trace, fig. S2B (Time 100.895 s, + YM254890): 1.029
calcium response trace, fig. S2B (Time 103.389 s, + YM254890): 1.027
calcium response trace, fig. S2B (Time 105.892 s, + YM254890): 1.0264
calcium response trace, fig. S2B (Time 108.406 s, + YM254890): 1.031
calcium response trace, fig. S2B (Time 110.9 s, + YM254890): 1.026
calcium response trace, fig. S2B (Time 113.413 s, + YM254890): 1.02
calcium response trace, fig. S2B (Time 115.917 s, + YM254890): 1.023
calcium response trace, fig. S2B (Time 118.43 s, + YM254890): 1.023
calcium response trace, fig. S2B (Time 120.934 s, + YM254890): 1.021
calcium response trace, fig. S2B (Time 123.45 s, + YM254890): 1.02
calcium response trace, fig. S2B (Time 125.93 s, + YM254890): 1.014
calcium response trace, fig. S2B (Time 128.414 s, + YM254890): 1.021
calcium response trace, fig. S2B (Time 130.908 s, + YM254890): 1.026
calcium response trace, fig. S2B (Time 133.402 s, + YM254890): 1.02
calcium response trace, fig. S2B (Time 135.905 s, + YM254890): 1.011
calcium response trace, fig. S2B (Time 138.41 s, + YM254890): 1.019
calcium response trace, fig. S2B (Time 140.942 s, + YM254890): 1.016
calcium response trace, fig. S2B (Time 143.446 s, + YM254890): 1.018
calcium response trace, fig. S2B (Time 145.949 s, + YM254890): 1.014
calcium response trace, fig. S2B (Time 148.465 s, + YM254890): 1.02
calcium response trace, fig. S2B (Time 150.996 s, + YM254890): 1.016
calcium response trace, fig. S2B (Time 153.49 s, + YM254890): 1.011
calcium response trace, fig. S2B (Time 156.003 s, + YM254890): 1.016
calcium response trace, fig. S2B (Time 158.497 s, + YM254890): 1.014
calcium response trace, fig. S2B (Time 161 s, + YM254890): 1.008
calcium response trace, fig. S2B (Time 163.494 s, + YM254890): 1.02
calcium response trace, fig. S2B (Time 165.987 s, + YM254890): 1.0117
calcium response trace, fig. S2B (Time 168.481 s, + YM254890): 1.018
calcium response trace, fig. S2B (Time 170.974 s, + YM254890): 1.011
calcium response trace, fig. S2B (Time 173.488 s, + YM254890): 1.015
calcium response trace, fig. S2B (Time 175.991 s, + YM254890): 1.0057
calcium response trace, fig. S2B (Time 178.505 s, + YM254890): 1.009
calcium response trace, fig. S2B (Time 181.018 s, + YM254890): 1.011
calcium response trace, fig. S2B (Time 183.532 s, + YM254890): 1.014
calcium response trace, fig. S2B (Time 186.036 s, + YM254890): 1.016
calcium response trace, fig. S2B (Time 188.549 s, + YM254890): 1.014
calcium response trace, fig. S2B (Time 191.053 s, + YM254890): 1.017
calcium response trace, fig. S2B (Time 193.556 s, + YM254890): 1.013
calcium response trace, fig. S2B (Time 196.05 s, + YM254890): 1.011
calcium response trace, fig. S2B (Time 198.533 s, + YM254890): 1.011
